Results reported in ChEMBL document CHEMBL1201862, “PubChem BioAssay data set” (2004).
Calls of active or inactive are those of the source.

Tests used:
[1] = target: Dual specificity tyrosine-phosphorylation-regulated kinase 1A (Rattus norvegicus, UniProt Q63470); type: biochemical, Homo sapiens
[2] = target: T1, Aminopeptidase N (Plasmodium falciparum FcB1/Columbia, UniProt O96935); assay: malaria alanyl aminopeptidase activity blockers – biochemical, fluorogenic H-Leu-NHMec substrate, 1536-well (AID 1445); parameters: species or system Plasmodium falciparum 3D7, 3D7
T1 sequence (O96935 whole entry): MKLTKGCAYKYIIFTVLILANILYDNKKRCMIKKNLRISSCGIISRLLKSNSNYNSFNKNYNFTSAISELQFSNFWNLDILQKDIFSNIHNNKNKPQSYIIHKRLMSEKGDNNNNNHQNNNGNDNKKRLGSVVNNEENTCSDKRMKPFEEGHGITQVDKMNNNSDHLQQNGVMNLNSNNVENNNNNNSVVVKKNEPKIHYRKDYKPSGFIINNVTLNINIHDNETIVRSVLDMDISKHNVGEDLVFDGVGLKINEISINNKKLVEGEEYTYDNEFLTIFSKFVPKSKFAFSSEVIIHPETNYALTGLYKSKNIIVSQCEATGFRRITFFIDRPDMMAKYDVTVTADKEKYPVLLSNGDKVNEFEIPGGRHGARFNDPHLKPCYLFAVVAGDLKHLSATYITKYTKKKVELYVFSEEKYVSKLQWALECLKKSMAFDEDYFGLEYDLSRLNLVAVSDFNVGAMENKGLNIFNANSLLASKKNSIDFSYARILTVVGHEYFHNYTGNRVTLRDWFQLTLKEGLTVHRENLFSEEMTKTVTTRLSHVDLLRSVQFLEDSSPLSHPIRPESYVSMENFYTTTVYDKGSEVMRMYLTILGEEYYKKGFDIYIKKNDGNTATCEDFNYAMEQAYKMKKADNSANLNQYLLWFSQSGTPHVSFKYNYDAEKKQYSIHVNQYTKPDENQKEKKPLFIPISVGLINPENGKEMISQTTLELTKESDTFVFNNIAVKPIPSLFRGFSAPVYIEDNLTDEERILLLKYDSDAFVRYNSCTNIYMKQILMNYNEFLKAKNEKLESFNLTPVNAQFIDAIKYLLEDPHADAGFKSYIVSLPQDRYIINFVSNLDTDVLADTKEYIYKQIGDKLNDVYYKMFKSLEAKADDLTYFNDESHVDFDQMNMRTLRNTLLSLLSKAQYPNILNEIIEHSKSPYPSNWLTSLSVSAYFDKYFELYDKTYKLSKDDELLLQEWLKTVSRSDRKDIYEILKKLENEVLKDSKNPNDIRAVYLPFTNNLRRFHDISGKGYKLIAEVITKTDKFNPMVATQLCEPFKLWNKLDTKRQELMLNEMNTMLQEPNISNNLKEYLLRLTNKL

[3] = NIH-3T3 fibroblast cytotoxicity, dose response, cytotoxicity control, cell-based, fluorescence, Alamar Blue, secondary assay (AID 2327); type: functional;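 note: NIH-3T3 mouse fibroblasts cultured with fluconazole at 8 µg/mL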
[4] = fluconazole-exposed Candida albicans growth modulators – fluorescence, retest, confirmation (AID 2467); type: functional, cell-based
[5] = target: T2, Serine/threonine-protein phosphatase (Candida dubliniensis (strain CD36 / CBS 7987 / NCPF 3949 / NRRLY-17841) (Yeast), UniProt B9W6M3); assay: blockers of CaCl2-induced CDRE-lacZ signaling – S. cerevisiae, luminescence, secondary, dose response (AID 2388); type: functional, cell-based;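 note: yeast reporter cells carrying a calcineurin-responsive lacZ construct stimulated with calcium chloride; luminescent beta-galactosidase reporter signal in whole cells rather than isolated phosphatase activity; potency for inhibition where a drop in reporter signal means calcineurin blockade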
T2 sequence (B9W6M3 whole entry): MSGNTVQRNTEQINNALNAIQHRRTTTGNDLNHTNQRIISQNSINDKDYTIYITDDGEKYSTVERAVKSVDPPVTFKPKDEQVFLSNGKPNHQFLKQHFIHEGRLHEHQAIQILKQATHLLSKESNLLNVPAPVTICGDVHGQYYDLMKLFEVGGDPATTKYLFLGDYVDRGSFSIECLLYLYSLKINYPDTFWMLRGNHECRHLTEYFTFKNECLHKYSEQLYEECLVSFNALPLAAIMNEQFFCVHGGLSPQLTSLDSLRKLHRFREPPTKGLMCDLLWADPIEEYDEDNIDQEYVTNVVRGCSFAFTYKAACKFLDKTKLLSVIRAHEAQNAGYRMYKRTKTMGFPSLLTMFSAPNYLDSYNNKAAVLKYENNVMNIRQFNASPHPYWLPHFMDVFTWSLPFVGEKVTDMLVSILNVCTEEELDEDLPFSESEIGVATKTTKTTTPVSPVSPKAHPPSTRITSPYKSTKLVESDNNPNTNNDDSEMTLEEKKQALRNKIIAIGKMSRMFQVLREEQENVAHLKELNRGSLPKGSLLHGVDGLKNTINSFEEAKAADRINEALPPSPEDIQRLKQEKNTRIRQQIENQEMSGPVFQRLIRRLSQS

[6] = target: 5-hydroxytryptamine receptor 2A (Mus musculus, UniProt P35363); type: functional, cell-based;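 note: CHO-K1 cells with tagged receptor and beta-arrestin; agonist potency measured as compound-induced activation of the receptor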
5-hydroxytryptamine receptor 2A, sequence (P35363 whole entry): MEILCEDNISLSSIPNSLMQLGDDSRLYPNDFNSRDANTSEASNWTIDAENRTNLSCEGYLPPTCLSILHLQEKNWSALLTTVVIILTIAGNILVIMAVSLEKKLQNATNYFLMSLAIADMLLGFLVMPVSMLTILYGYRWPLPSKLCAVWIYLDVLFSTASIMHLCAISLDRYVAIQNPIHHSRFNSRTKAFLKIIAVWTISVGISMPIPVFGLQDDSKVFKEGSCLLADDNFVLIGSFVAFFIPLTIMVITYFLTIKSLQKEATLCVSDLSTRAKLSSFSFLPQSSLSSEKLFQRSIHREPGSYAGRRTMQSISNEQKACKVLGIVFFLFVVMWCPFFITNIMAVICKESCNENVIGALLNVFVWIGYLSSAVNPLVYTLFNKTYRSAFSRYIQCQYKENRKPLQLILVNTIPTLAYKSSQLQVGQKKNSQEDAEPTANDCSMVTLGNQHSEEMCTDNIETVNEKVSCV

[7] = target: ATP-dependent molecular chaperone HSP82 (Candida albicans (strain WO-1) (Yeast), UniProt C4YTQ8); assay: steroid-induced GRE reporter decrease in yeast – S. cerevisiae, luminescence, Hsp90 inhibitor project, dose response (AID 2400); type: functional, cell-based;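 note: beta-galactosidase luminescence from glucocorticoid response element reporter as proxy for Hsp90 function; inhibitor potency where signal loss means Hsp90 inhibition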
ATP-dependent molecular chaperone HSP82, sequence (C4YTQ8 whole entry): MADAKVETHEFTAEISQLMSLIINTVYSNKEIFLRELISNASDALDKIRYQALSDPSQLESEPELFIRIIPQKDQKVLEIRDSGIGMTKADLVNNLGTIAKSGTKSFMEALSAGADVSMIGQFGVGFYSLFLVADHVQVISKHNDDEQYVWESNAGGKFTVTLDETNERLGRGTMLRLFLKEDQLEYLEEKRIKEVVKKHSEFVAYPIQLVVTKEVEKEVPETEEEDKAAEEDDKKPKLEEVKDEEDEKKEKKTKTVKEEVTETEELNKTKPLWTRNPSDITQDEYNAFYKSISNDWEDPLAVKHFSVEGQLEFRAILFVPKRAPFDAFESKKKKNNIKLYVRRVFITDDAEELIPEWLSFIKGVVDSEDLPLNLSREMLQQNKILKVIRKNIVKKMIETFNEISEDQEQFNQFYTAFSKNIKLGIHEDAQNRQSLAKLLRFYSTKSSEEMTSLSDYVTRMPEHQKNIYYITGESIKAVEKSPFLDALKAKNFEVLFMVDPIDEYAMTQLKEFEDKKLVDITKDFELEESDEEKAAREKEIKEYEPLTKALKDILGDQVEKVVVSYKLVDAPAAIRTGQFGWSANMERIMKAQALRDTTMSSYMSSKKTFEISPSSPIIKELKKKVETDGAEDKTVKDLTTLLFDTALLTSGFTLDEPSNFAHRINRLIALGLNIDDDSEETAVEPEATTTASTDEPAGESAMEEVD

[8] = target: Mu-type opioid receptor (Homo sapiens, UniProt P35372); type: functional, cell-based;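 note: U2OS cells with beta-arrestin recruitment to OPRM1 by beta-gal complementation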
Mu-type opioid receptor, sequence (P35372 whole entry): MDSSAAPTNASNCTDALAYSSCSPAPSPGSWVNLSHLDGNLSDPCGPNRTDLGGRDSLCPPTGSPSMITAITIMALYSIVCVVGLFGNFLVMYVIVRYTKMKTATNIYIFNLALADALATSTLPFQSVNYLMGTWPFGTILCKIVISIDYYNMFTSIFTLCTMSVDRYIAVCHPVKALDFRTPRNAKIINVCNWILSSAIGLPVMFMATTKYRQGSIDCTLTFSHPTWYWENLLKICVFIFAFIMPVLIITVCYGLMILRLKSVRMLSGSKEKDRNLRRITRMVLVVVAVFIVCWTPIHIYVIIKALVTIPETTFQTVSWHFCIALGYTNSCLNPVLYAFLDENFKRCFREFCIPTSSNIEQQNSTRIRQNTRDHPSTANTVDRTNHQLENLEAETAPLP

[9] = test system: Escherichia coli; assay: microbe, parasite or virus in culture
[10] = target: T3, Heat shock factor protein 1 (Mus musculus, UniProt P38532); assay: decrease of HSF1-responsive luciferase luminescence – cell-based, NIH3T3, dose retest, confirmation (AID 2382); type: functional;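 note: NIH3T3 fibroblasts with HSF1-driven luciferase reporter stressed by proteasome inhibitor MG132; luminescence from HSF1-driven luciferase expression after 8 hours of MG132 stress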
T3 sequence (P38532 whole entry): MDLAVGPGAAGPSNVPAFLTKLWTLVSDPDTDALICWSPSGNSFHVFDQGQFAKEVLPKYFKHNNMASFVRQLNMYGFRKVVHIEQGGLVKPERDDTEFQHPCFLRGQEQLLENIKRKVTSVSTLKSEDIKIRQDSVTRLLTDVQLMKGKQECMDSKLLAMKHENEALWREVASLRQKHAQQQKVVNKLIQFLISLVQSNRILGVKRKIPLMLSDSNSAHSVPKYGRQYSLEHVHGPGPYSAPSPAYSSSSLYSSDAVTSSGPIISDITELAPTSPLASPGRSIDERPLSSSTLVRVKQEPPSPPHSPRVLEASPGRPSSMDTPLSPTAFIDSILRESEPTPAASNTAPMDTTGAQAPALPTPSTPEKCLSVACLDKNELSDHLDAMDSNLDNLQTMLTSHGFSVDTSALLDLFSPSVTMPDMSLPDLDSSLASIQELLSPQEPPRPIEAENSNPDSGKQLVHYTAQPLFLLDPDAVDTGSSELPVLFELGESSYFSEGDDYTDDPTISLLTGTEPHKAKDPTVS

[11] = test system: Streptococcus sp. 'group A'; assay: Streptococcus pyogenes SK(-)GAS viability under kanamycin – luminescence, BacTiterGlo, confirmation, counter-screen for streptokinase expression inhibitor project, dose response (AID 1900); type: functional, organism-based
[12] = test system: INS1; assay: INS-1E survival protection against cytokine death – cell-based, luminescence, retest, dose response (AID 449756); type: functional; details: Rattus norvegicus;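 note: cell death triggered by IL-1 beta plus TNF-alpha plus IFN-gamma mixture; protective hits raise ATP signal compared with cytokine alone wells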
[13] = test system: Streptococcus; assay: GAS UMAA2166 growth inhibition – luminescence, BacTiterGlo, counter-screen for streptokinase expression inhibitor project, dose response (AID 1915); type: functional, organism-based;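 note: potency for reduction of bacterial viability or growth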
[14] = target: Voltage-gated inwardly rectifying potassium channel KCNH2 (Homo sapiens, UniProt Q12809); details: Potency;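 note: confirmatory quantitative high-throughput screen measuring inhibition of hERG channel activity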
Voltage-gated inwardly rectifying potassium channel KCNH2, sequence (Q12809 whole entry): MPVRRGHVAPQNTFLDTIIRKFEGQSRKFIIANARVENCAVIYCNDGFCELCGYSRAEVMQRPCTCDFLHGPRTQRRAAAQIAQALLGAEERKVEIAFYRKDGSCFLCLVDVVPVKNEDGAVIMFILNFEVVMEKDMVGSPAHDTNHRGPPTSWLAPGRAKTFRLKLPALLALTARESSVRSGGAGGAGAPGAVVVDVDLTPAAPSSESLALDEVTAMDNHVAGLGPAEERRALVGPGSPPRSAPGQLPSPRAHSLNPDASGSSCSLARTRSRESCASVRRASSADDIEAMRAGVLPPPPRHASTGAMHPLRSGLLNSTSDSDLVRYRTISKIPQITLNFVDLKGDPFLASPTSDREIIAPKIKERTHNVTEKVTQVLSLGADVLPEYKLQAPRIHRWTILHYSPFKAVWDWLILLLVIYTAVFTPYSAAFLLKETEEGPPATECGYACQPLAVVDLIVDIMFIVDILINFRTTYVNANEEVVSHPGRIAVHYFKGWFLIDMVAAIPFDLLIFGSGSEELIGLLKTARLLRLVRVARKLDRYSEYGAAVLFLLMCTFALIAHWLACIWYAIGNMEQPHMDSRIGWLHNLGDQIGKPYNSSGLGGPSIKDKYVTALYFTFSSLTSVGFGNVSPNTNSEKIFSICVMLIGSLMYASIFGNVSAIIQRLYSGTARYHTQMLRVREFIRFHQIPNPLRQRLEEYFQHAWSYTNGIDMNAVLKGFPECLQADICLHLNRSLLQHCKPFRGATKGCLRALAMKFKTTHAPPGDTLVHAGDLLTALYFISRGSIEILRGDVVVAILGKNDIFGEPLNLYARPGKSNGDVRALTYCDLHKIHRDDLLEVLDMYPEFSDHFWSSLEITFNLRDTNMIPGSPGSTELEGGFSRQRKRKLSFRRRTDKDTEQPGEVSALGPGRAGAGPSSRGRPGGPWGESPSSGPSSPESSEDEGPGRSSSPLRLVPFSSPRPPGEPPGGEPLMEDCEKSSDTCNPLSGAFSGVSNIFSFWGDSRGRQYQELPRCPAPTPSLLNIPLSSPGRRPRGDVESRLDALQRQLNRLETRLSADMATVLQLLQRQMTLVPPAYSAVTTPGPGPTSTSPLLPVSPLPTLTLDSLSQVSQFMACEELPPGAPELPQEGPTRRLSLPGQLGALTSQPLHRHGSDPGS

[15] = target: T4, Replicative DNA helicase DnaB (Mycobacterium tuberculosis, UniProt P9WMR3); assay: DnaB intein splicing inhibitors, dose response, biochemical, cell-free fluorescence (AID 449749); type: functional
T4 sequence (P9WMR3 whole entry): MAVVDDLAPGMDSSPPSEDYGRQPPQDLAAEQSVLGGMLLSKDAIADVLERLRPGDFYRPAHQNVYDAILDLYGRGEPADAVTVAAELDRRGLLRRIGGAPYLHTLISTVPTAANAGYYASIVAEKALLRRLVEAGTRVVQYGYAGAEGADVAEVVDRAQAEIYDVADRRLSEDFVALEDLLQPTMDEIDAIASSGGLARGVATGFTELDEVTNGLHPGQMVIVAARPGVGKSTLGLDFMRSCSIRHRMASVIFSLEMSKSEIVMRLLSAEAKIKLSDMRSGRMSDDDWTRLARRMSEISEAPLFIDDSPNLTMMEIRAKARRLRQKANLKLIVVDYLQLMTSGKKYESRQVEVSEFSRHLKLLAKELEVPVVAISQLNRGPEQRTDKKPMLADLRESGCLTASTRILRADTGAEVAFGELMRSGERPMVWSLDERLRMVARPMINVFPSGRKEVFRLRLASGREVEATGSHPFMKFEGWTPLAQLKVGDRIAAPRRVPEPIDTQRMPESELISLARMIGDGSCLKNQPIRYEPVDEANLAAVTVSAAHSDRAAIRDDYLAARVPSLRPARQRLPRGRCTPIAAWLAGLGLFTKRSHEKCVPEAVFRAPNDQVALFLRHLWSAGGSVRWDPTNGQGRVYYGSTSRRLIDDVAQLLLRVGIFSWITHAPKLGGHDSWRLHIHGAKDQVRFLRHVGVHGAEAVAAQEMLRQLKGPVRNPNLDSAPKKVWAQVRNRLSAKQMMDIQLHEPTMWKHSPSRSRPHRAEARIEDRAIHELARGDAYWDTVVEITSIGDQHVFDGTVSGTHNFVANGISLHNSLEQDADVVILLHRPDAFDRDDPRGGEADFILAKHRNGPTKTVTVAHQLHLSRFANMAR

[16] = target: Paired box protein Pax-8 (Homo sapiens, UniProt Q06710); assay: PAX8 transcriptional activity inhibition in RMG-I – RMG-I cells, luciferase, cherry-pick, dose response (AID 687027); type: functional, cell-based;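 note: luciferase reporter driven by Pax8 target thyroperoxidase promoter measured by SteadyGlo luminescence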
Paired box protein Pax-8, sequence (Q06710 whole entry): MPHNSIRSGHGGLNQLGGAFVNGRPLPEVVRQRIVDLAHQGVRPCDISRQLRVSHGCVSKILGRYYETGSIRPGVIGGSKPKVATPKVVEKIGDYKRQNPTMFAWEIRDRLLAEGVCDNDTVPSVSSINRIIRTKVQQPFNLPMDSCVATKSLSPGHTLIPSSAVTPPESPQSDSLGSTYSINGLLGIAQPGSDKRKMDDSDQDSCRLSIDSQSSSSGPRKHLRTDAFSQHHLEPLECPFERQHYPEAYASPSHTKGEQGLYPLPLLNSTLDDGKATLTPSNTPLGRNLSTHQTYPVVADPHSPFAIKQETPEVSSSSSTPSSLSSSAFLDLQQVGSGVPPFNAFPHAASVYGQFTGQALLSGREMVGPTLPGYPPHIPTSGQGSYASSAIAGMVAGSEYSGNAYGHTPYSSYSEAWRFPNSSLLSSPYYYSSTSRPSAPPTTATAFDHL

[17] = target: T5, Protein RecA (Mycobacterium tuberculosis, UniProt P9WHJ3); assay: Fluorescence Cell-Free Homogeneous Dose Retest to Identify Inhibitors of RecA-Intein Splicing Activity. [Related pubchem assays (depositor defined):AID2097, AID2223, AID489010, AID492950]; type: functional
T5 sequence (P9WHJ3 whole entry): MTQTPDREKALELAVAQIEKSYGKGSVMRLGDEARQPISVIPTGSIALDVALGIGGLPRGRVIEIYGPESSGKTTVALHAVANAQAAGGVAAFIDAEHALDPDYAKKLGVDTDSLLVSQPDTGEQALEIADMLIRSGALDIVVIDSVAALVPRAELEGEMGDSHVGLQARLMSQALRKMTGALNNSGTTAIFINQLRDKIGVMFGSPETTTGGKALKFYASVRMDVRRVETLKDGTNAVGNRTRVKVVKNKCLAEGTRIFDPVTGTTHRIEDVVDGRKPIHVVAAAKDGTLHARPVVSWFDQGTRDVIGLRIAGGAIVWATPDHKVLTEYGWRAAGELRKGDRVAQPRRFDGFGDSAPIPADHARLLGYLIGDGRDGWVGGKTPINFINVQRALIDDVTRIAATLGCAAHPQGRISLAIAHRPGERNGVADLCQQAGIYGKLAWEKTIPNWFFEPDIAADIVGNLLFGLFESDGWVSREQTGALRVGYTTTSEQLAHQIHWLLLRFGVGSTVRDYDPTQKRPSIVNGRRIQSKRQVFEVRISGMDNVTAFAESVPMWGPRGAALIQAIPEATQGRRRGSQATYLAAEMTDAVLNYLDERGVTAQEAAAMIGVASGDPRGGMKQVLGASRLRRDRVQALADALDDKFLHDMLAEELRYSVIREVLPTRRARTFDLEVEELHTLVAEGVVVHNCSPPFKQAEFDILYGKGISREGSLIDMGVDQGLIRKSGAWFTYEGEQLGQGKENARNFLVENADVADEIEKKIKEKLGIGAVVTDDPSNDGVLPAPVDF

[18] = test system: Vero; assay: cells; type: functional; details: Chlorocebus sabaeus
[19] = general cell-killing toxicity readout – plate reader, dry powder samples, cytotoxicity control for PAX8 inhibitor project, dose response (AID 743021); type: functional, cell-based
[20] = test system: Vero; assay: cells; type: functional, cell-based; details: Chlorocebus sabaeus

## Cc1cc(-c2ccc(C(=O)O)s2)cnc1N
[1]
  AC50: 4.79 µM (active)
[2]
  IC50: 58.9 µM (active)

## COc1cccc(-c2nc(NC(C)C)c3ccccc3n2)c1O
[3]
  EC50: > 160 µM (inactive)
[4]
  EC50: 4.42 µM (active)
[5]
  EC50: > 180 µM (inactive)
[6]
  EC50: 8.51 µM (active)
[7]
  EC50: 54.5 µM (active)
[8]
  EC50: 92.5 µM (inactive)

## CC(C)OC(=O)Cn1c(=O)oc2ccccc21
[9]
  AC50: 21.8 µM (active)
[10]
  EC50: > 195 µM (not active)

## Cc1cc(N/N=C/c2c(O)ccc3ccccc23)nc(-c2ccccc2O)n1
[3]
  EC50: > 160 µM (inactive)
[4]
  EC50: 2.07 µM (active)
[11]
  EC50: 0.235 µM (active)
[5]
  EC50: > 180 µM (inactive)
[12]
  AC50: 1.69 µM (active)
[13]
  EC50: 0.425 µM (active)
[7]
  EC50: 38.8 µM (active)

## OCc1c[nH]cn1
[14]
  AC50: 1.78 µM (inconclusive)

## CCCC(=O)Nc1nc(-c2ccc3c(c2)OCCO3)cs1
[1]
  AC50: 8.75 µM (active)

## CC(Oc1cccnc1[N+](=O)[O-])C(=O)N1CCc2ccccc21 (stereo not given)
[9]
  AC50: 22.2 µM (active)

## Cc1cccc(N(Cc2cc(O)nc3ccccc23)C(=O)CCl)c1
[15]
  AC50: 10.5 µM (active)
[16]
  AC50: 3.93 µM (active)
[17]
  EC50: 1.67 µM (active)
[18]
  CC50: 5.83 µM (active)
[19]
  AC50: 24.9 µM (active)
[20]
  IC50: > 25 µM (active)

## CC(=O)Nc1ccc(NS(=O)(=O)c2ccc3ccccc3c2)cc1
[9]
  AC50: 27.4 µM (active)

## O=C(O)c1cc(/N=C/c2c(O)oc3ccccc3c2=O)ccc1O
[1]
  AC50: 32.5 µM (active)

## CC(C)c1ccccc1 [ISOPROPYLBENZENE]
[14]
  AC50: 1.58 µM (inconclusive)

## COc1cc(N)c(Cl)cc1C(=O)OCCN1CCCCC1
[14]
  AC50: 25.1 µM (inconclusive)
